The target of the test is T1, human PDE4B1 (Homo sapiens, UniProt Q07343).
T1 construct: host or cells: Sf9 cells
Nature of the test: cAMP HTRF assay to determine the activity of hPDE4B1. It is filed as biochemical. The settings on record: for inhibition at 1 µM: 1 μM test concentration, human recombinant PDE4B1, cAMP 40 nM, read-out: Inhibition at 1 μM test concentration [%] (Percentage inhibition of PDE4B); for IC50: measured according to the cAMP HTRF hPDE4B1 assay, read-out: PDE4B IC50. The method, then:
cAMP HTRF® Assay to Determine the Activity of hPDE4B1
The inhibiting effect of the compounds on the enzyme activity of human PDE4B1 was measured by the quantification of 5′-adenosine monophosphate (5′-AMP), which is formed from 3′,5′-adenosine monophosphate (cAMP). Human recombinant enzyme, expressed in Sf9 cells, and the HTRF (homogeneous time-resolved fluorescence) detection method were used in the assay.
The test compound or water (control) was mixed with the human recombinant PDE4B1 enzyme (4.8 U) in a buffer consisting of 44.4 mM tris-HCl, 5.28 mM MgCl2, 2.64 mM DTT and 0.044% Tween 20 (pH 7.8). After adding the cAMP enzyme substrate (final concentration 40 nM) the mixture was incubated for 30 minutes at room temperature. Then a fluorescence acceptor (Dye2 marked with cAMP), a fluorescence donor (anti-cAMP antibody marked with a europium cryptate) and the non-specific phosphodiesterase inhibitor IBMX (3-isobutyl-1-methylxanthine; final concentration 1 mM) were added. After 60 minutes the fluorescence transfer, which correlates with the amount of remaining cAMP, was measured with a microplate reader (Rubystar, BMG) at λex=337 nm, λem=620 nm and λem=665 nm. The enzyme activity was calculated from the quotient formed from the measured signal at 665 nm and that at 620 nm. The result was expressed as the percentage inhibition of enzyme activity of the control (without PDE4 inhibitor) (literature: N. Saldou et al., Comparison of recombinant human PDE4 isoforms: interaction with substrate and inhibitors, Cell. Signal. Vol. 10, No. 6, 427-440, 1998). The enzyme was omitted for measurement of the basal control.
Background: Time-resolved FRET reads energy transfer from a long-lived donor to a nearby acceptor.

T1 sequence (Q07343 whole entry): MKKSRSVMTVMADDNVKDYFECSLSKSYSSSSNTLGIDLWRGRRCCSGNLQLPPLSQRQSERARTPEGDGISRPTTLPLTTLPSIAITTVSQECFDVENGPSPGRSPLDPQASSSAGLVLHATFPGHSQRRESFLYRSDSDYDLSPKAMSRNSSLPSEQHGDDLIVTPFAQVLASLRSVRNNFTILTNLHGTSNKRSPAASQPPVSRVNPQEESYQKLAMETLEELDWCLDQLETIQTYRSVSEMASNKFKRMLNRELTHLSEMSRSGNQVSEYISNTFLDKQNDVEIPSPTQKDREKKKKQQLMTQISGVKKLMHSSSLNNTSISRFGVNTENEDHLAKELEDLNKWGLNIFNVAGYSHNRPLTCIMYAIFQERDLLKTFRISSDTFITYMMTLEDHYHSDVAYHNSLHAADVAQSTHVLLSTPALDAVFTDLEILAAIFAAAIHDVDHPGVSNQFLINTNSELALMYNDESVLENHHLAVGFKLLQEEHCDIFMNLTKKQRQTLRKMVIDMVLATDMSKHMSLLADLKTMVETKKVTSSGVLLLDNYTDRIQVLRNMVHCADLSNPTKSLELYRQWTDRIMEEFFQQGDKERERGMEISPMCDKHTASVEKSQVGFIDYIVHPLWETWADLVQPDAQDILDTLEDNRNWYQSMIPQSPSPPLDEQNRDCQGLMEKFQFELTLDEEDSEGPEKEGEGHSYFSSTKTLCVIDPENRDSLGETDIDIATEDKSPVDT

For `NC(=O)c1ccc(-c2nc3c(c(Oc4ccc(CC(=O)O)cc4)n2)CCC3)s1` [Compound 47, 2-(4-(2-(5-Carbamoylthiophen-2-yl)-6,7-dihydro-5H-cyclopenta[d]pyrimidin-4-yloxy)phenyl)acetic acid], the inhibition at 1 µM is 79%.
`COc1ccc(-c2nc3c(c(Oc4ccc(CC(=O)O)cc4)n2)CS(=O)(=O)C3)cc1` [Compound 18, 2-[4-[[2-(4-Methoxyphenyl)-6,6-dioxo-5,7-dihydro-thieno[3,4-d]pyrimidin-4-yl]oxy]-phenyl]-acetic acid]: the inhibition at 1 µM worked out at 112% and the IC50 (as a rule, the concentration needed to halve the response being measured) was under 100 nM.
Turning to `CC1Cc2nc(-c3ccc(Cl)s3)nc(Oc3ccc(CC(=O)O)cc3)c2C1` (stereo not shown) [Compound 59, 2-(4-((2-(5-Chlorothiophen-2-yl)-6-methyl-6,7-dihydro-5H-cyclopenta[d]pyrimidin-4-yl)oxy)phenyl)acetic acid], the inhibition at 1 µM was 62%.
Still for that read-out and setting: next, `COc1ccc(-c2nc3c(c(Oc4ccc(C(=O)O)cc4)n2)CCC3)cc1Cl` [Compound 5, 4-(2-(3-Chloro-4-methoxyphenyl)-6,7-dihydro-5H-cyclopenta[d]pyrimidin-4-yloxy)benzoic acid]: 71%; `O=C(O)Cc1ccc(Oc2nc(-c3ccc(Cl)s3)nc3c2CCCC3)cc1` [Compound 10, 2-(4-(2-(5-Chlorothiophen-2-yl)-5,6,7,8-tetrahydroquinazolin-4-yloxy)phenyl)acetic acid]: 49%.
As for `O=C(O)Cc1ccc(Oc2nc(-c3ccc(Cl)s3)nc3c2C[S+]([O-])C3)cc1` (stereo not shown) [Compound 20, 2-[4-[[2-(5-Chloro-thiophen-2-yl)-6-oxo-5,7-dihydro-thieno[3,4-d]pyrimidin-4-yl]oxy]-phenyl]-acetic acid], the inhibition at 1 µM stood at 103% and the IC50 was under 100 nM.
With `O=C(O)Cc1ccc(Oc2nc(-c3cncs3)nc3c2CCC3)cc1` [Compound 45, 2-(4-(2-(Thiazol-5-yl)-6,7-dihydro-5H-cyclopenta[d]pyrimidin-4-yloxy)phenyl)acetic acid], the inhibition at 1 µM stood at 55%.
As to `O=C(O)c1ccc(Oc2nc(-c3ccc(Cl)s3)nc3c2CCC3)cc1` [Compound 8, 4-(2-(5-Chlorothiophen-2-yl)-6,7-dihydro-5H-cyclopenta[d]pyrimidin-4-yloxy)benzoic acid], the inhibition at 1 µM stood at 84%.
For the molecule `O=C(O)Cc1ccc(Oc2nc(-c3ccc(Cl)s3)nc3c2CCC3)cc1` [Compound 7, 2-(4-(2-(5-Chlorothiophen-2-yl)-6,7-dihydro-5H-cyclopenta[d]pyrimidin-4-yloxy)phenyl)acetic acid], the inhibition at 1 µM was found to be 77% and the half-inhibitory concentration (IC50) was under 100 nM.
On to `COc1ccc(-c2nc3c(c(Oc4ccc(CC(=O)O)cc4)n2)CCC3)cc1F` [Compound 1, 2-(4-(2-(3-Fluoro-4-methoxyphenyl)-6,7-dihydro-5H-cyclopenta[d]pyrimidin-4-yloxy)phenyl)acetic acid], for which the inhibition at 1 µM came to 74%.
For `COc1ccc(-c2nc3c(c(Oc4ccc(CC(=O)O)cc4)n2)CS(=O)(=O)C3)cc1F` [Compound 16, 2-[4-[[2-(3-Fluoro-4-methoxy-phenyl)-6,6-dioxo-5,7-dihydro-thieno[3,4-d]pyrimidin-4-yl]oxy]-phenyl]-acetic acid], the inhibition at 1 µM worked out at 89% and the IC50 is under 100 nM.
Turning to `COc1ccc(-c2nc3c(c(Oc4ccc(CC(=O)O)cc4)n2)CCC3)cc1Cl` [Compound 2, 2-(4-(2-(3-Chloro-4-methoxyphenyl)-6,7-dihydro-5H-cyclopenta[d]pyrimidin-4-yloxy)phenyl)acetic acid], the inhibition at 1 µM came to 75%.
As for `CSc1ccc(-c2nc3c(c(Oc4ccc(CC(=O)O)cc4)n2)CCC3)s1` [Compound 51, 2-(4-(2-(5-(Methylthio)thiophen-2-yl)-6,7-dihydro-5H-cyclopenta[d]pyrimidin-4-yloxy)phenyl)acetic acid], the inhibition at 1 µM is 84%.
As to `COc1ccc(-c2nc3c(c(Oc4ccc(C(=O)O)cc4)n2)CCC3)cc1F` [Compound 4, 4-(2-(3-Fluoro-4-methoxyphenyl)-6,7-dihydro-5H-cyclopenta[d]pyrimidin-4-yloxy)benzoic acid], the inhibition at 1 µM was determined as 62%.
Still for that read-out and setting: next, `O=C(O)Cc1ccc(Oc2nc(-c3ccc(F)c(F)c3)nc3c2CCC3)cc1` [Compound 3, 2-(4-(2-(3,4-Difluorophenyl)-6,7-dihydro-5H-cyclopenta[d]pyrimidin-4-yloxy)phenyl)acetic acid]: 30%.
With `O=C(O)c1ccc(Oc2nc(-c3ccc(F)c(F)c3)nc3c2CCC3)cc1` [Compound 6, 4-(2-(3,4-Difluorophenyl)-6,7-dihydro-5H-cyclopenta[d]pyrimidin-4-yloxy)benzoic acid], the inhibition at 1 µM turned out to be 55%.
For `O=C(O)Cc1ccc(Oc2nc(-c3ccc(F)s3)nc3c2CS(=O)(=O)C3)cc1` [Compound 15, 2-[4-[[2-(5-Fluoro-thiophen-2-yl)-6,6-dioxo-5,7-dihydro-thieno[3,4-d]pyrimidin-4-yl]oxy]-phenyl]-acetic acid], the inhibition at 1 µM came out at 86% and the IC50 is under 100 nM.
For the molecule `O=C(O)Cc1ccc(Oc2nc(-c3cccc(Br)c3)nc3c2CCC3)cc1` [Compound 54, 2-(4-((2-(3-Bromophenyl)-6,7-dihydro-5H-cyclopenta[d]pyrimidin-4-yl)oxy)phenyl)acetic acid], the inhibition at 1 µM was determined as 42%.
The same measure, in the same setting: next, `O=C(O)Cc1ccc(Oc2nc(-c3ccc(Cl)s3)nc3c2CSCC3)cc1` [Compound 22, 2-(4-(2-(5-Chlorothiophen-2-yl)-7,8-dihydro-5H-thiopyrano[4,3-d]pyrimidin-4-yloxy)phenyl)acetic acid]: 50%; `O=C(O)Cc1ccc(Oc2nc(-c3ccc(Br)cc3)nc3c2CCC3)cc1` [Compound 53, 2-(4-((2-(4-Bromophenyl)-6,7-dihydro-5H-cyclopenta[d]pyrimidin-4-yl)oxy)phenyl)acetic acid]: 51%.
Regarding `COc1ccc(-c2nc3c(c(Oc4ccc(CC(=O)O)cc4)n2)CS(=O)(=O)C3)cc1Cl` [Compound 17, 2-[4-[[2-(3-Chloro-4-methoxy-phenyl)-6,6-dioxo-5,7-dihydro-thieno[3,4-d]pyrimidin-4-yl]oxy]-phenyl]-acetic acid], the inhibition at 1 µM came out at 95% and the IC50 is under 100 nM.
As for `O=C(O)Cc1ccc(Cc2nc(-c3ccc(Cl)s3)nc3c2CCC3)cc1` [Compound 9, 2-(4-((2-(5-Chlorothiophen-2-yl)-6,7-dihydro-5H-cyclopenta[d]pyrimidin-4-yl)methyl)phenyl)acetic acid], the inhibition at 1 µM was 75%.
The same measure, in the same setting: next, `O=C(O)Cc1ccc(Oc2nc(-c3cnc(Cl)s3)nc3c2CCC3)cc1` [Compound 46, 2-(4-(2-(2-Chlorothiazol-5-yl)-6,7-dihydro-5H-cyclopenta[d]pyrimidin-4-yloxy)phenyl)acetic acid]: 76%; `O=C(O)c1ccc(Oc2nc(-c3ccc(Cl)s3)nc3c2CCCC3)cc1` [Compound 11, 4-(2-(5-Chlorothiophen-2-yl)-5,6,7,8-tetrahydroquinazolin-4-yloxy)benzoic acid]: 44%; `O=C(O)Cc1ccc(Oc2nc(-c3ccc(Cl)s3)nc3c2CC(F)(F)CC3)cc1` [Compound 12, 2-(4-(2-(5-Chlorothiophen-2-yl)-6,6-difluoro-5,6,7,8-tetrahydroquinazolin-4-yloxy)phenyl)acetic acid]: 23%.

The values above are taken from patent publication US9670189B2, “Substituted condensed pyrimidine compounds” (GRÜNENTHAL GMBH, priority 2013, dated 2017).
